Experimental data as given in article PMC3049593 (British Journal of Cancer, 2011).

Tests used:
[1] = tested on: Hep3b2.1-7 tumours; assay: orthotopic Hep3b2.1-7 human liver cancer model; type: in vivo, mice
Protocol: (§1) In the orthotopic Hep3b2.1-7 human liver cancer model, treatment of mice (n=10) began 14 days after inoculation of 2.5 × 10^6 cells. […] To initiate tumour xenografts, MDA-MB-231, PC3, Cal27 and HepG2 cells were injected s.c. into nude mice (n=8) at 4, 5, 2 and 2 × 10^7 cells ml^−1, respectively. […] In the B16F0 lung metastasis model, 2 × 10^5 cells were injected via the tail vein of C57Bl6 mice (n=8). […] Surface lung macrometastases were counted for each group (n=9) upon study termination. In the intrasplenic HT-29 xenograft model, 1 × 10^6 cells in 100 μl were injected into the spleen. […] Solid tumours were measured in two dimensions (length and width) and the tumour volume (cm^3) was calculated using the equation: V=length × width^2 × π/6. The anti-tumour activity was expressed as percent tumour growth inhibition (%TGI). Further details are available in Supplementary Methods. […]
In the Hep3b2.1-7 model, the cells resuspended in HBSS:MatrigelTM (1:1, v/v) to a final concentration of 5 x 10^8 cells/mL were inoculated following an incision into the skin directly over the liver to expose the main lobe of the liver. The needle was introduced into the main lobe of the liver, where 2.5 x 106 Hep3b2.1-7 cells (in 5 µL with 50% Matrigel) were discharged. The treatment of mice began 24 days after inoculation of the […]
either a once or twice weekly dosing schedule (see figure legends for dose schedules in each study) for up to three weeks. […]
efficacy/PK study) using either a once or twice weekly dosing schedule (see figure legends for dose schedules in each study) for up to three weeks. […]
In relevant models, solid tumours were measured in two dimensions (length and width) and the tumour volume (mm3) calculated using the equation V = length × width2 × π/6.The anti-tumour activity was assessed by the comparison of the mean tumour volume of the treated groups to the mean tumour volume of the control group and expressed as the percent Tumour Growth Inhibition (TGI) using the equation:
%TGI = (1-((VendPG545 - VstartPG545) / (VendControl - VstartControl)))*100 VendPG545 = Ending Tumour Volume of PG545-treated animal
VstartPG545 = Starting Tumour Volume of PG545-treated animal
VendControl = Ending Tumour Volume of Control animal
VstartControl = Starting Tumour Volume of Control animal […]
After collection, 0.2 mL of […]
whole blood was added to a glass scintillation vial to which 1 mL Solvable was added.
Samples were incubated for one hour at 55-60°C. 0.1 mL of 0.1 M EDTA-di-sodium salt solution and 0.3 mL to 0.5 mL of 30% hydrogen peroxide in 0.1 mL aliquots were added to the sample. Samples were gently agitated between additions to allow reaction foaming to subside. Samples were incubated for 30 minutes at room temperature. […]

[2] = tested on: Lewis Lung Carcinoma (LL/2) tumour angiogenesis; assay: CD31 staining of primary LL/2 tumours; type: in vivo, mice
Protocol: Angiogenesis in vivo was evaluated using the Angiosponge model in which subcutaneously implanted, agarose-captured FGF2 gelfoam sterile sponges (Pfizer, West Ryde, Australia) induces vascularisation over a 10-day period responsive to angiogenesis inhibition as determined by the number of vessels with identifiable lumen that stained positive for CD31/PECAM-1, an antigen present specifically on endothelial cells ([McCarty et al, 2002]). PG545 was administered s.c. on the flank distal to the AngioSponge implant. This method was also used to examine five medium-sized primary tumours from each group of Lewis Lung Carcinoma (LL/2)-bearing mice.
as §1, with “termination.” for “termination. In the intrasplenic HT-29 xenograft model, 1 × 10^6 cells in 100 μl were injected into the spleen.”, “(%TGI).” for “(%TGI). Further details are available in Supplementary Methods.”

[3] = toxicity / toxicology studies; type: in vivo

CC(C)CCC[C@@H](C)[C@H]1CCC2C3CCC4C[C@@H](O[C@@H]5O[C@H](COS(=O)(=O)[O-])[C@@H](O[C@H]6O[C@H](COS(=O)(=O)[O-])[C@@H](O[C@H]7O[C@H](COS(=O)(=O)[O-])[C@@H](O[C@H]8O[C@H](COS(=O)(=O)[O-])[C@@H](OS(=O)(=O)[O-])[C@H](OS(=O)(=O)[O-])[C@H]8OS(=O)(=O)[O-])[C@H](OS(=O)(=O)[O-])[C@H]7OS(=O)(=O)[O-])[C@H](OS(=O)(=O)[O-])[C@H]6OS(=O)(=O)[O-])[C@H](OS(=O)(=O)[O-])[C@H]5OS(=O)(=O)[O-])CC[C@]4(C)C3CC[C@@]21C.[Na+].[Na+].[Na+].[Na+].[Na+].[Na+].[Na+].[Na+].[Na+].[Na+].[Na+].[Na+].[Na+] (stereo partly shown) [PG545] showed a TGI ([1]; 20 mg kg^−1 loading dose then 10 mg kg^−1 twice-weekly) of 55%, a TGI ([1]; 20 mg kg^−1 twice-weekly s.c.) of 52% and a TGI ([1]; once-weekly 20 mg kg^−1 followed by 10 mg kg^−1) of 65%. For the same compound, the “decrease in CD31 endothelial staining in tumours” value ([2]; 20 mg kg^−1 once-weekly s.c.) was 30%, the “decrease in CD31 endothelial staining in tumours” value ([2]; 40 mg kg^−1 once-weekly s.c.) was 22% and the “activated partial thromboplastin time” value ([3]; high doses, toxicology studies, reversible (data not shown)) was “increased activated partial thromboplastin time”. For the same compound, the “body weight loss in other species” value ([3]; toxicity studies (data not shown)) was “did not lead to significant body weight loss”.
